According to PMC7026418, “The kinase polypharmacology landscape of clinical PARP inhibitors” (Scientific Reports, 2020):
Like-named read-outs stand apart in the source and are kept apart here. Values belong to the compound of their own block, whether it stands above or below them.

Columns and labels:
Assay in all cases: biochemical
Design in all cases: DiscoveRx KINOMEscan active site-directed competition binding; percent of control kinase bound to immobilised ligand
ACVR1B = target: T1, ACVR1B (Homo sapiens, UniProt P36896)
T1 sequence (P36896 1-505): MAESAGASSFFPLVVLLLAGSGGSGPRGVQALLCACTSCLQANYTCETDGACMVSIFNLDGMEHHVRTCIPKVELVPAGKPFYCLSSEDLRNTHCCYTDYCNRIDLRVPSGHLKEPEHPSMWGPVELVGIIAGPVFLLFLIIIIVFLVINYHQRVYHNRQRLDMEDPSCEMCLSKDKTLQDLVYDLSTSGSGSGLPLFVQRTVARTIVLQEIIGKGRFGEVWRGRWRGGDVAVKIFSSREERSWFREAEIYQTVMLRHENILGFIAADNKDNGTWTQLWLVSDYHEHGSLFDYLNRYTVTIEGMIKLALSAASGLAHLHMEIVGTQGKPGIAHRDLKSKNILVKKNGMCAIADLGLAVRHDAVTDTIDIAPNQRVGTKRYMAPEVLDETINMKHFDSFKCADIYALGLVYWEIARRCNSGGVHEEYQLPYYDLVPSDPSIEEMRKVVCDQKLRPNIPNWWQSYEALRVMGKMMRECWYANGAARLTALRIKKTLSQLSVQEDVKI

KIT(D816H) = KIT(D816H) (Homo sapiens, UniProt P10721, D816H)
PDGFRB = PDGFRB (Homo sapiens, UniProt P09619)
PIK3CA(E542K) = PIK3CA(E542K) (Homo sapiens, UniProt P42336, E542K)
RIOK1 = target: T2, RIOK1 (Homo sapiens, UniProt Q9BRS2)
T2 sequence (Q9BRS2 1-568): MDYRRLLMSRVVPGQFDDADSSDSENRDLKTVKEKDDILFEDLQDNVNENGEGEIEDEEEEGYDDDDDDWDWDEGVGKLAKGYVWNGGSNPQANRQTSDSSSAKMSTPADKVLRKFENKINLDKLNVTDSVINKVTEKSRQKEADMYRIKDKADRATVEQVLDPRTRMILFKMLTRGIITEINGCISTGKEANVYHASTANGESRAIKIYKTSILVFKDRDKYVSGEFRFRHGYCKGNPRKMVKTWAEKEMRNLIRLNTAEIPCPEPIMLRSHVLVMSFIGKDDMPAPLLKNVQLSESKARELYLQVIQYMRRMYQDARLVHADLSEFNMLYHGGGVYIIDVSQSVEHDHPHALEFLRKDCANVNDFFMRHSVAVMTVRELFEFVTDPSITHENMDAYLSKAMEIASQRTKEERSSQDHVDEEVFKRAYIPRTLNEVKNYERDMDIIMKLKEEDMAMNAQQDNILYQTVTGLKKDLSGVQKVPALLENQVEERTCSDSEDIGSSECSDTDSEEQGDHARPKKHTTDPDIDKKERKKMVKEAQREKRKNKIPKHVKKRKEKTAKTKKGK

[1] = target: T3, RSK3(Kin.Dom.1-N-terminal) (Homo sapiens, UniProt Q15349)
T3 construct: gene RPS6KA2; Kin.Dom.1-N-terminal

TAOK3 = target: T4, TAOK3 (Homo sapiens, UniProt Q9H2K8)
T4 sequence (Q9H2K8 1-898): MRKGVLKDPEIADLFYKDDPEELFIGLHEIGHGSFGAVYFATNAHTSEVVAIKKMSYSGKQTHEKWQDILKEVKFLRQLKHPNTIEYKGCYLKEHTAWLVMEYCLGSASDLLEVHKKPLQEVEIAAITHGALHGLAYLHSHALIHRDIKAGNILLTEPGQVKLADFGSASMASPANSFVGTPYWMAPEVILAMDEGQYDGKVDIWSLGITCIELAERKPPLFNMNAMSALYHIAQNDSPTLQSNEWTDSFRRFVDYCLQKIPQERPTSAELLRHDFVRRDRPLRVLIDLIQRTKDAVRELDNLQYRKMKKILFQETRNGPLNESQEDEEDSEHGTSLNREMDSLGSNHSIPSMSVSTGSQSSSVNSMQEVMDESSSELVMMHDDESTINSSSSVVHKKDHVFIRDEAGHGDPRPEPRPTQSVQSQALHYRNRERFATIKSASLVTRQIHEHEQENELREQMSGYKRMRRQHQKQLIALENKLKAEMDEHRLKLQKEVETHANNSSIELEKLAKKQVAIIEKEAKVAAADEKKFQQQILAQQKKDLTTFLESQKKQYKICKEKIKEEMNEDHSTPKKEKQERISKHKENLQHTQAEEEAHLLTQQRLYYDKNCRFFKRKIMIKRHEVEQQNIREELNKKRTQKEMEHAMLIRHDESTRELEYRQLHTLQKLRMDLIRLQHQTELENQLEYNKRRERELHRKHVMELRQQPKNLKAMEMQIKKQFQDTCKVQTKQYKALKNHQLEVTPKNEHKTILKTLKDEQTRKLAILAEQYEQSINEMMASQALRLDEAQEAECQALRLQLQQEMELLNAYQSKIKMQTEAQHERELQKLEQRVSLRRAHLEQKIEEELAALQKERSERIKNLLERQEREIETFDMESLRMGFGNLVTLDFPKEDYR

[2] = read-out: Niraparib (MK-4827) / %Ctrl @ 10000nM
[3] = read-out: Rucaparib / %Ctrl @ 10000nM, binding competition, % of control
[4] = read-out: Olaparib / %Ctrl @ 10000nM
[5] = read-out: Talazoparib (BMN 673) / %Ctrl @ 10000nM

Sequence of PIK3CA(E542K) (P42336 whole entry E542K): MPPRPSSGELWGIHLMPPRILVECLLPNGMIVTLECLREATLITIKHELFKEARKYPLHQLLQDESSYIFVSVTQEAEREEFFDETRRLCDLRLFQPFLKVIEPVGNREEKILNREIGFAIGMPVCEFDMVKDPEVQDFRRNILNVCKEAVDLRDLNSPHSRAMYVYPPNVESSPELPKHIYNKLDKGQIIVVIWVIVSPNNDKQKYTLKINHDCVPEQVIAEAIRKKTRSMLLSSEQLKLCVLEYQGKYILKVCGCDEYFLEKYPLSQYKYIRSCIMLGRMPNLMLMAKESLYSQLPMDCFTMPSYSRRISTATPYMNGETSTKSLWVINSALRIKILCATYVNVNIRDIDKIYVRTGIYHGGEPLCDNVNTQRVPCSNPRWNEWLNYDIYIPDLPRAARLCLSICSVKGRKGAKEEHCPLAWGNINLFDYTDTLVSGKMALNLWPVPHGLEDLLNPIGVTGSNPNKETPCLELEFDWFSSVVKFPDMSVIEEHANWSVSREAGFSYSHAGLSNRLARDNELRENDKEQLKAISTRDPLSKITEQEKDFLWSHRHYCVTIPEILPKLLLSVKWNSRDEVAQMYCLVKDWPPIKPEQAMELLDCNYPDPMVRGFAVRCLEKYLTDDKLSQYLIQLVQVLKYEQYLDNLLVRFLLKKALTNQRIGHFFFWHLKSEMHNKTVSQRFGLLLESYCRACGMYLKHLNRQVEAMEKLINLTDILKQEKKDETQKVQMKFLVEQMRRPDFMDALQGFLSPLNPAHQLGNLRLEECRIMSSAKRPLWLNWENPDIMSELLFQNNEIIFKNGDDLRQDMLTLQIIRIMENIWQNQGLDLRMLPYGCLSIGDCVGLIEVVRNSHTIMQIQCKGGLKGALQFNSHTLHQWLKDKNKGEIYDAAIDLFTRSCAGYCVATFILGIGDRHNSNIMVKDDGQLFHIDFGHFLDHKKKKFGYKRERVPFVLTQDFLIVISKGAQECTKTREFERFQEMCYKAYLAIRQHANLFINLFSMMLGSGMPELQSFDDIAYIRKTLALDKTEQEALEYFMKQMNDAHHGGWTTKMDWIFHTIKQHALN
Sequence of KIT(D816H) (P10721 whole entry D816H): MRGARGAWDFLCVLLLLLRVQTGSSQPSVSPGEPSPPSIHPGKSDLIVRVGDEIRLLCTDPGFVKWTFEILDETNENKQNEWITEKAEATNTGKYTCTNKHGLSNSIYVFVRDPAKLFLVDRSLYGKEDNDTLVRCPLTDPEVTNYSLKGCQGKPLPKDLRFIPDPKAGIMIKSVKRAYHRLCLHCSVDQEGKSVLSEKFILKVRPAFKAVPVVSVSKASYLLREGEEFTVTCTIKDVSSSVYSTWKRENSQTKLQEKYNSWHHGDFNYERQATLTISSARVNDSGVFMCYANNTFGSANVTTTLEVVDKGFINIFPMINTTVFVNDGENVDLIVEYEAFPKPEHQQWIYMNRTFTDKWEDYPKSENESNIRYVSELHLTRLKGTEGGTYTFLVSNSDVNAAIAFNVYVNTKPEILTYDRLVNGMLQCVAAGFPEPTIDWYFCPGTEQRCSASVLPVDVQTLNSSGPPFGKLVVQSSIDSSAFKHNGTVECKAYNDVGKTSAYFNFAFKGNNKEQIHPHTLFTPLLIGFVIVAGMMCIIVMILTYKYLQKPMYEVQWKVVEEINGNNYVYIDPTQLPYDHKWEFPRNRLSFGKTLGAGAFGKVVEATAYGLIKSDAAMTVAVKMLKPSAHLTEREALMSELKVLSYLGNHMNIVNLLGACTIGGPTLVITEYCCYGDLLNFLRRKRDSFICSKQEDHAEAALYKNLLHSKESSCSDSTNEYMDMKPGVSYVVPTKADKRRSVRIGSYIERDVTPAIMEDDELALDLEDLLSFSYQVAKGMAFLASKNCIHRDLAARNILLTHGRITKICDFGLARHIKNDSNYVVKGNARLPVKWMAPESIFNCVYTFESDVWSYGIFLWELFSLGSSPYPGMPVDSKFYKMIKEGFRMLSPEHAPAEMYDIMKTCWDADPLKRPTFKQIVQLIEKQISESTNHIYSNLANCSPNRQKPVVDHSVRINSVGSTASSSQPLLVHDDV
T3 sequence (Q15349 whole entry): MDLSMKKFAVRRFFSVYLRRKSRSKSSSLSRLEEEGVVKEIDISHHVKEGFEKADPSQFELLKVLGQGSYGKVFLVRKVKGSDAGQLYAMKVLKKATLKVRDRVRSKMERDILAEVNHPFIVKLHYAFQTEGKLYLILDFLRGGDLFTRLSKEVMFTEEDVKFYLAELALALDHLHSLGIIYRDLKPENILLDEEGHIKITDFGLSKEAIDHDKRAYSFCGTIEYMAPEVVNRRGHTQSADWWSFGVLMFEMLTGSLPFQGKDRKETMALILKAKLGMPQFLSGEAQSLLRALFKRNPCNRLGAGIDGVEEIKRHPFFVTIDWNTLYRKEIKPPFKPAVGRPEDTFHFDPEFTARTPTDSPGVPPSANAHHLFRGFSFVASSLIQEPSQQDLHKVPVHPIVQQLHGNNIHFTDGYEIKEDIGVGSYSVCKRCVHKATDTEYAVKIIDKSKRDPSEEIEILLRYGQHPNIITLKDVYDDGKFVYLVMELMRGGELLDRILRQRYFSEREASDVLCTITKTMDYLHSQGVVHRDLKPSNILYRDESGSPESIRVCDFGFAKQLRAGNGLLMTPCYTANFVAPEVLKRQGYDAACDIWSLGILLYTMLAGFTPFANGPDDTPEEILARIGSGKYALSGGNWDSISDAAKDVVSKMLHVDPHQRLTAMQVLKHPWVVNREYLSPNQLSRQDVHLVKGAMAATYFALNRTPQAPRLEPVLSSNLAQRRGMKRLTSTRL
Sequence of PDGFRB (P09619 whole entry): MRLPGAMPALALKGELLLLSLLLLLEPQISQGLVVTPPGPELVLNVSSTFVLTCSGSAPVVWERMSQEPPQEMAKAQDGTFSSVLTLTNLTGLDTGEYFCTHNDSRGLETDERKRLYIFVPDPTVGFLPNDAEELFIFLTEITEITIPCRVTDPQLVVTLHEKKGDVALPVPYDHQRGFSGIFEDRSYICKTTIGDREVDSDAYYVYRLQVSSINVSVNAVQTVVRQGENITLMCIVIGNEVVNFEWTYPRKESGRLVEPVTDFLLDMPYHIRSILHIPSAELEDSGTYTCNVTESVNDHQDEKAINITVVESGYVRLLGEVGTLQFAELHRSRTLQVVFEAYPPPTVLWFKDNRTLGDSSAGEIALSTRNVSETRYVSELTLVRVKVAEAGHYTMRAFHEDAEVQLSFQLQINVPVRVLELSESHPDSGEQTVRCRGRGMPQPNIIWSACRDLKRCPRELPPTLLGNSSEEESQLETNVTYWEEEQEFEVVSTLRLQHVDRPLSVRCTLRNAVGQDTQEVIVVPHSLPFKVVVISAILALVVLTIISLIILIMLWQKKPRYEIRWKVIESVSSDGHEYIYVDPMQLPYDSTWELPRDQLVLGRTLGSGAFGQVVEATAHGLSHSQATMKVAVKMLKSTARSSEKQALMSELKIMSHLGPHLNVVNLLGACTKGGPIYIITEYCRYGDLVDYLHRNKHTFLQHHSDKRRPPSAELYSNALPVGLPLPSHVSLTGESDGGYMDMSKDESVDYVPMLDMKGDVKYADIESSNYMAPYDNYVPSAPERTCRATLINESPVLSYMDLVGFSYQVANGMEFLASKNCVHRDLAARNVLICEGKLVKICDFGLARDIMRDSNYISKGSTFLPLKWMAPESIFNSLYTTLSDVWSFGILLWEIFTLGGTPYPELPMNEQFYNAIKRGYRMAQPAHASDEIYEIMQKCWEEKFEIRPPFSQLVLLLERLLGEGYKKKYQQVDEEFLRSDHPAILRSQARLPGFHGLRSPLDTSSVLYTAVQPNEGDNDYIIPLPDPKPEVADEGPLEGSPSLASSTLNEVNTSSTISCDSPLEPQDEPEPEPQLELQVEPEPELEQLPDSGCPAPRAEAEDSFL

Structure (SMILES): NC(=O)c1cccc2cn(-c3ccc([C@@H]4CCCNC4)cc3)nc12 [Niraparib]
percent of control binding at 10 µM (ACVR1B; [2]): 95%
percent of control binding at 10 µM (KIT(D816H); [2]): 94%
percent of control binding at 10 µM (PDGFRB; [2]): 90%
percent of control binding at 10 µM (PIK3CA(E542K); [2]): 100%
percent of control binding at 10 µM (RIOK1; [2]): 95%
percent of control binding at 10 µM [1, 2]: 74%
percent of control binding at 10 µM (TAOK3; [2]): 100%

percent of control binding at 10 µM (ACVR1B; [3]): 89%
percent of control binding at 10 µM (KIT(D816H); [3]): 82%
percent of control binding at 10 µM (PDGFRB; [3]): 98%
percent of control binding at 10 µM (PIK3CA(E542K); [3]): 82%
percent of control binding at 10 µM (RIOK1; [3]): 100%
percent of control binding at 10 µM [1, 3]: 99%
percent of control binding at 10 µM (TAOK3; [3]): 91%
Structure (SMILES): CNCc1ccc(-c2[nH]c3cc(F)cc4c3c2CCNC4=O)cc1 [Rucaparib]

percent of control binding at 10 µM (ACVR1B; [4]): 100%
percent of control binding at 10 µM (KIT(D816H); [4]): 96%
percent of control binding at 10 µM (PDGFRB; [4]): 96%
percent of control binding at 10 µM (PIK3CA(E542K); [4]): 94%
percent of control binding at 10 µM (RIOK1; [4]): 100%
percent of control binding at 10 µM [1, 4]: 97%
percent of control binding at 10 µM (TAOK3; [4]): 94%
Structure (SMILES): O=C(c1cc(Cc2n[nH]c(=O)c3ccccc23)ccc1F)N1CCN(C(=O)C2CC2)CC1 [Olaparib]

percent of control binding at 10 µM (ACVR1B; [5]): 77%
percent of control binding at 10 µM (KIT(D816H); [5]): 100%
percent of control binding at 10 µM (PDGFRB; [5]): 99%
percent of control binding at 10 µM (PIK3CA(E542K); [5]): 100%
percent of control binding at 10 µM (RIOK1; [5]): 100%
percent of control binding at 10 µM [1, 5]: 84%
percent of control binding at 10 µM (TAOK3; [5]): 100%
Structure (SMILES): Cn1ncnc1[C@H]1c2n[nH]c(=O)c3cc(F)cc(c23)N[C@@H]1c1ccc(F)cc1 [Talazoparib]
